“Also recorded” adds a separate entry of the source.
How the values were obtained:
[1] = test system: human leukemia cell line HPBALL (with Notch1 mutations); test: Cell cycle (PI staining, S-G2-M cells) and cell number, HPBALL; format: cell-based
Protocol: FIG. 1A is a series of charts showing representative cell cycle profiles of human leukemia cell line HPBALL (with Notch1 mutations) treated with a vehicle (V) (for ribociclib (LEE) or compound GD) or LEE or compound GD for 6 days at 1, 5, 10, and 20 μM.
FIG. 1B is a histogram summarizing the cell cycle distribution of the HPBALL cell line treated with compound GD, as described for FIG. 1A. Data shown are mean±S.D. (n=6); *P<0.05 vs its vehicle controls, t-test.
FIG. 1C is a histogram summarizing the cell cycle distribution of the HPBALL cell line treated with ribociclib (LEE), as described for FIG. 1A. Data shown are mean±S.D. (n=6); *P<0.05 vs its vehicle controls, t-test.
FIG. 1D is a chart the percentage of S-G2-M cells in FIGS. 1B and 1C. IC50 is the concentration of an inhibitor where the response (here is the inhibition of proliferation) is reduced by half.
FIG. 1E is a bar graph summarizing the cell numbers of HPBALL cells treated with either GD with different doses or LEE (20 μM) for 6 days. Data shown are mean±S.D. (n=6); *P<0.05 vs vehicles (0) control, t-test.
HCl salt of 6-acetyl-5-methyl-2-((4-(piperazin-1-ylmethyl)thiazol-2-yl)amino)pyrido[2,3-d]pyrimidin-7(8H)-one (Compound GD) prepared in Example 1 was examined for its inhibitory activity in cancer cell lines and WT and CDK6^−/− mouse embryonic fibroblasts (MEFs) and stromal vascular fractions (SVFs). […]
(§1) Table 2: Experimental Procedures: sensitivity to CDK6 kinase activity inhibition was tested by incubating different cell lines in the presence of CDK6 inhibitor GD007/PBS for either 24 hours for detecting the status of pRB-780 phosphorylation, or 5 days for determining the effect of GD007 on cell proliferation. (1) By immunoblotting (WB), we will detect phospho-pRB-S^780, one of the substrates of CDK6 kinase; (2) By using FACS analysis, we will stain treated cells with Propidium Iodide (PI), a commonly used fluorescent intercalator, to measure the subpopulation of cell cycle to reveal any impact of CDK6 inhibition on cell proliferation; (3) cell numbers will be counted using hemocytometer.

[2] = test system: human leukemia cell line T-ALL1 (with WT Notch1); test: Cell cycle (PI staining, S-G2-M cells) and cell number, T-ALL1; format: cell-based
Protocol: FIG. 2A is a series of charts showing representative cell cycle profiles of human leukemia cell line T-ALL1 (with WT Notch1) treated with a vehicle (V) (for palbociclib (PD) or compound GD), PD (0.5 μM), or compound GD at 1, 2.5, 5, 10, and 20 μM for 6 days.
FIG. 2B is a histogram summarizing the cell cycle distribution of the T-ALL1 cell line in FIG. 2A. Data shown are mean±S.D. (n=6); *P<0.05 vs its vehicle controls, t-test.
FIG. 2C is a chart showing the percentage of S-G2-M cells in samples in FIGS. 2A and 2B. […]
as §1

[3] = test system: human lung cancer cell line A549; test: Cell cycle (PI staining, S-G2-M cells) and pRB immunoblot, A549; format: cell-based
Protocol: FIG. 4A is a series of charts showing representative cell cycle profiles of human lung cancer cell line A549 treated with a vehicle (V) (for palbociclib (PD) or compound GD), PD (0.5 μM), or compound GD at 0.005, 0.05, 0.5, and 5 μM for 6 days.
FIG. 4B is a histogram showing the cell cycle distribution of A549 cell line in FIG. 4A. Data shown are mean±S.D. (n=6); *P<0.05 vs its vehicle controls, t-test.
FIG. 4C is a chart showing the percentage of S-G2-M cells in FIG. 4B. IC50 for compound GD is ca. 0.05 μM.
FIG. […] Tubulin was used as a loading control.
as §1

[4] = test system: phosphorylated pRB at SER-780 in MDA-MB231 cells; test: Immunoblot of phosphorylated pRB (SER-780) and PI staining, MDA-MB231; format: cell-based
Protocol: FIG. 5A is an image of a representative immunoblot showing the levels of phosphorylated pRB at SER-780 in MDA-MB231 and HPBALL cells following treatment of these cells with a vehicle, PD, or compound GD for 24 hours. Tubulin was used as loading control.
as §1

[5] = test system: phosphorylated pRB at SER-780 in U251 cells; test: Immunoblot of phosphorylated pRB (SER-780), U251; format: cell-based
Protocol: FIG. 5B is an image of a representative immunoblot showing the levels of phosphorylated pRB at SER-780 in U251 cells following treatment of these cells with a vehicle, PD, or compound GD for 24 hours. Tubulin was used as loading control.
as §1

[6] = Fat pad mass and body weight of WT mice on normal chow diet; format: in vivo; conditions: WT (B6) mice, NCD
Protocol: FIGS. 9A and 9B are images showing a close view of the iWAT (FIG. 9A) and eWAT (FIG. 9B) and mass of fat pads from mice treated with GD or PBS, as indicated. The mass of various fat pads was normalized to body weight of mice on NCD at the end of experiments. Data shown are mean±S.D. (n=8 for each group), *p<0.05, t-test, GD vs PBS.
FIG. 9D is a graph showing body weight of age-matched female WT mice on NCD over 27-day observation period. GD/PBS commenced by gavage daily for 21 days at 200 mg/kg/day at age of 6-weeks-old. Body weight shown are mean±S.D. (n=8 for each group), *p<0.05, t-test, GD vs PBS.

Breast Cancer: MCF-7 = test: PI staining and pRB-780 immunoblot, MCF-7; format: cell-based; conditions: PI staining and WB: P-RB-780
Protocol: as §1

Prostate Cancer: PC-3 = test: pRB-780 immunoblot, PC-3; format: cell-based; conditions: WB: P-RB-780
Protocol: as §1

[7] = 200 mg/kg/day for 21 days, normalized to body weight

IC50 ([1]; Homo sapiens, 144 h, HPBALL, 6 days, read-out: IC50 (inhibition of proliferation, percentage of S-G2-M cells)): ~4 µM | IC50 ([2]; Homo sapiens, TALL-1, 144 h, T-ALL1, 6 days, read-out: IC50 (percentage of S-G2-M cells, growth inhibition)): ~1.1 µM | IC50 ([3]; Homo sapiens, 144 h, A549, 6 days, read-out: IC50 (percentage of S-G2-M cells)): ~0.05 µM
SMILES: CC(=O)c1c(C)c2cnc(Nc3nc(CN4CCNCC4)cs3)nc2[nH]c1=O [Compound GD, 6-acetyl-5-methyl-2-((4-(piperazin-1-ylmethyl)thiazol-2-yl)amino)pyrido[2,3-d]pyrimidin-7(8H)-one]
Compound GD Efficacy ([1]; Leukemic cells: HPBALL, PI Staining, and cell number counting): Efficacious | Compound GD Efficacy ([2]; Leukemic cells: TALL1, PI Staining, and cell number counting): Efficacious | growth of lung cancer cell line A549 ([3]; FIGS. 4A-4D): inhibits growth | Compound GD Efficacy ([3]; Lung Cancer: A549, WB: P-RB-780, PI staining): Efficacious | Compound GD Efficacy ([4]; MDA-MB231, PI staining and WB: P-RB-780): Efficacious | pRB phosphorylation ([4]; breast cancer cell line MDA-MB231, 24 hours): inhibits pRB phosphorylation | Compound GD Efficacy ([5]; Brain Tumor: U251, WB: P-RB-780): Efficacious | pRB phosphorylation ([5]; glioblastoma cell line U251, 24 hours): inhibits pRB phosphorylation | body weight, most significant reduction compared to PBS treated mice ([6]; 200 mg/kg/day): 7.1 % reduction | fat pad mass vs PBS-treated mice ([6]; 200 mg/kg/day by gavage for 21 days, 200 mg/kg/day): dramatically and significantly decreased; also recorded: reduced fat mass | fat pad mass, eWAT, reduction vs PBS-treated mice [6, 7]: ~2.0 fold reduction | fat pad mass, iWAT, reduction vs PBS-treated mice [6, 7]: ~1.42 fold reduction | Compound GD Efficacy (Breast Cancer: MCF-7): No | Compound GD Efficacy (Prostate Cancer: PC-3): No
